pIC50, pKd: −log10 of the molar value. Several values for one entry are separate records, joined by “and”; a condition that tells them apart may be missing. Equal values may be shown once. Read-outs that look alike come from different tables or passages of the source.
Tests used:
[1] = target: T1, IRE1α (Homo sapiens, UniProt O75460); assay: Differential scanning fluorimetry (DSF), IRE1α; assay type: binding; settings: for IRE1a ∆Tm: DSF, individual measurements; for IRE1 ∆Tm(°C): Supplementary Fig. 3d/3e, replicate values
T1 construct: Human IRE1α kinase and RNase domain (residues 547–977) was subcloned into pLIB plasmid; His tag (with TEV cleavage site) (N, cleaved yes); made in house; host or cells: Sf9 insect cells, baculovirus (Bac-to-Bac)
T1 sequence (O75460 547-977): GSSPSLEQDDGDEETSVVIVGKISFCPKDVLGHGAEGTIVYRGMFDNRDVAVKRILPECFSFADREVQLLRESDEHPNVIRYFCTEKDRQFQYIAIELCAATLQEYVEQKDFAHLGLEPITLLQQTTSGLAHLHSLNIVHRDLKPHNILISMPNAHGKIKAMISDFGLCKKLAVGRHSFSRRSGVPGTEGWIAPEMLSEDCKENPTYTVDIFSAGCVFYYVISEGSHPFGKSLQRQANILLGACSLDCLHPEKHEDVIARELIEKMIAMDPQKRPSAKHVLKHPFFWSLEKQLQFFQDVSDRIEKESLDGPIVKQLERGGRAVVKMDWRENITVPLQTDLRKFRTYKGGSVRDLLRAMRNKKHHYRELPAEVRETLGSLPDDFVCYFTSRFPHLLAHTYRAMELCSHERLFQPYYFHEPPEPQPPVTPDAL
Experimental: The DSF assay was performed in PBS buffer containing 2 mM DTT, in a total reaction volume of 20 µl with indicated compounds (final 1% DMSO) and the final concentration of 1 µM IRE1α protein and 5× SYPRO Orange fluorescent dye (5000× in DMSO, Sigma S5692). The melting curve was measured at a temperature range from 25 °C to 95 °C and in increments of 1 °C for 30 s using a Bio-Rad CFX96 Real-Time PCR detection system with the FRET scan mode. The melting temperature (Tm) was obtained by fitting the melting curve to Boltzmann sigmoidal in GraphPad Prism and the thermal shift (∆Tm) was calculated by using the equation: ∆Tm = Tm(compound) -Tm(DMSO).

[2] = target: T2, phosphorylated IRE1α (p-IRE1α) (Homo sapiens, UniProt O75460); assay: FRET-based IRE1α RNase activity assay, phosphorylated IRE1α; assay type: biochemical; settings: for pIC50: FRET assay; for inhibition(%): p-IRE1a
T2 construct: Human IRE1α kinase and RNase domain (residues 547–977) was subcloned into pLIB plasmid; His tag (with TEV cleavage site) (N, cleaved yes); made in house; host or cells: Sf9 insect cells, baculovirus (Bac-to-Bac)
T2 sequence (O75460 547-977): as above
In short: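 Sf9-expressed IRE1α kinase-RNase domain (residues 547–977), fully phosphorylated fraction, 4 nM, preincubated with compound 30 min at RT, then 200 nM FAM/BHQ1 XBP1 RNA added in HEPES pH 7.5 buffer. Fluorescence (ex 485/em 535 nm) read kinetically for 1 h at RT; inhibition from linear slopes, IC50 by concentration-response fit.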

[3] = target: T3, dephosphorylated IRE1α (Homo sapiens, UniProt O75460); assay: Isothermal titration calorimetry (ITC), incl. competitive ITC; assay type: binding; settings: for KD (competitive ITC): ND, not detectable
T3 construct: Human IRE1α kinase and RNase domain (residues 547–977) was subcloned into pLIB plasmid; His tag (with TEV cleavage site) (N, cleaved yes); made in house; host or cells: Sf9 insect cells, baculovirus (Bac-to-Bac)
T3 sequence (O75460 547-977): as above
Experimental: The dephosphorylated IRE1α protein was used directly after purification, ITC experiments were carried out at 25 °C using MicroCal PEAQ-ITC system (Malvern) in buffer 25 mM HEPES pH 7.5, 250 mM NaCl, 1 mM TCEP, 5% glycerol, 1% DMSO. The solution was diluted to a final 1% DMSO in the same buffer as for the protein. Protein and compound solution were degassed before loading to the cell and syringe respectively. Unless otherwise noted, 200 μM of compound was loaded into the syringe and 10 μM of IRE1α protein was loaded into the sample cell. For competitive ITC, the protein was incubated with the indicated compound at 25 °C (final 1% DMSO) before loading to the cell. Instrument settings were: reference power 10 μcal/s, feedback high, stir speed 750 rpm, initial delays 60 s, injection spacing 150 s, injection duration 4 s. All experiments were performed with a single 0.4 μL injection followed by 18 (or 15), 2 μL injections. Data were analyzed using MicroCal PEAQ-ITC analysis software. The one set of sites fitting model is used for the calorimetry data analysis, with cell concentration and syringe concentration as the input parameters. For compound IA01, the N was set to 1 to improve the fit.

[4] = RNase activity, mean (± SEM), read-out: p-IRE1α IC50
[5] = source data, unit from Fig. 3, read-out: p-IRE1a IC50, individual replicates (n1-n4)
[6] = titrating 200 μM compound into 10 μM IRE1α, no competitor (DMSO), read-out: KD (ITC)

Row | SMILES | stabilization of IRE1α in DSF [1] | pIC50 [2, 4] | pIC50 [2, 5] | pKd [3, 6] | IRE1 ∆Tm(°C) ([1]; compound 1.563 μM) | IRE1 ∆Tm(°C) ([1]; compound 3.125 μM) | IRE1 ∆Tm(°C) ([1]; compound 6.25 μM) | IRE1 ∆Tm(°C) ([1]; compound 12.5 μM) | IRE1 ∆Tm(°C) ([1]; compound 25 μM) | IRE1 ∆Tm(°C) ([1]; compound 50 μM) | IRE1 ∆Tm(°C) ([1]; compound 100 μM) | effect on p-IRE1α RNase activity in the FRET assay [2] | further results
1 | Cc1c(CCC(=O)O)c2cc(Br)ccc2n1C(=O)c1ccccc1 [IA107] | concentration-dependently stabilized | 8.03 | 7.95 and 7.99 and 8.18 | 6.03 | – | – | – | – | – | – | – | – | IRE1a ∆Tm ([1]; compound 25 μM): 4.2925 °C (2×) and 4.2325 °C and 4.2625 °C; IRE1a ∆Tm ([1]; compound 50 μM): 5.1825 °C and 5.3725 °C and 5.2525 °C and 5.2825 °C; IRE1a ∆Tm ([1]; compound 100 μM): 5.7825 °C and 5.7925 °C (2×) and 5.8625 °C; pIC50 ([2]; read-out: p-IRE1α IC50 (RNase activity)): 8.05; pKd ([3]; IA107 to IRE1α with 5 μM G1749, read-out: KD (competitive ITC)): 5.65; KD (competitive ITC) ([3]; IA107 to IRE1α with 50 μM G1749): did not show detectable binding; KD (competitive ITC) ([3]; IA107 to IRE1α with 200 μM G1749): did not show detectable binding; pKd ([3]; titrating 200 μM compound to 20 μM dephosphorylated IRE1α, read-out: KD (ITC)): 5.85
2 | Cc1c(CCC(=O)O)c2cc(Cl)ccc2n1C(=O)c1ccccc1 [IA141] | concentration-dependently stabilized | 7.09 and 7.10 | 7.00 and 7.08 and 7.20 | 5.74 | 0.63 °C and 0.81 °C and 0.65 °C and 0.58 °C | 1.12 °C and 1.18 °C and 0.97 °C and 1.08 °C | 1.79 °C and 1.73 °C and 1.77 °C and 1.66 °C | 2.82 °C and 2.70 °C and 2.75 °C and 2.68 °C | 3.71 °C and 3.59 °C and 3.83 °C and 3.70 °C | 4.64 °C and 4.50 °C and 4.51 °C and 4.69 °C | 5.27 °C (2×) and 5.25 °C and 5.36 °C | – | –
3 | Cc1ccc2c(c1)c(CCC(=O)O)c(C)n2C(=O)c1ccccc1 [IA147] | concentration-dependently stabilized | 6.88 and 6.89 | 6.81 and 6.90 and 6.93 | 5.52 | 0.4825 °C (2×) and 0.3925 °C and 0.4425 °C | 0.6325 °C and 0.6525 °C and 0.6425 °C and 0.5925 °C | 1.0225 °C and 1.5025 °C and 1.2125 °C and 1.1425 °C | 1.7325 °C and 2.0725 °C and 1.7925 °C (2×) | 2.7025 °C (2×) and 2.5925 °C and 2.5225 °C | 3.6525 °C and 3.6025 °C and 3.6325 °C and 3.5325 °C | 4.5725 °C and 4.5025 °C and 4.4925 °C and 4.4625 °C | – | –
4 | CCOC(=O)CCc1c(C)n(C(=O)c2ccccc2)c2ccc(Br)cc12 [IAPD1] | – | – | – | – | – | – | – | – | – | – | – | did not inhibit the RNase activity | inhibition(%) ([2]; 0.00254 μM): -4.888% and 2.526% and -4.055% and 4.733%; inhibition(%) ([2]; 16.6667 μM): -1.806% and 4.317% and -3.888% and 0.777%; inhibition(%) ([2]; 50 μM): 0.943% and 1.151% and 1.193% and 2.068%
5 | Cc1ccc2c(NS(=O)(=O)c3ccccc3Cl)cccc2c1Oc1ncccc1-c1ccnc(N[C@H]2CCCNC2)n1 [KIRA8] | – | 8.52 | – | – | – | – | – | – | – | – | – | inhibit the p-IRE1α RNase activity | –
